Data as given in PMC10483525, “Synthesis, Structural Investigations, DNA/BSA Interactions, Molecular Docking Studies, and Anticancer Activity of a New 1,4-Disubstituted 1,2,3-Triazole Derivative” (ACS Omega, 2023).

Legend:
Test in all cases: MTT assay
Type in all cases: cell-based, human
[1] = test system: Caco-2; details: for IC50: Homo sapiens
Experimental: (§1) Human cancer cell lines (MDA-MB-231, LNCaP, Caco-2) and a human healthy cell line (HEK-293) were obtained from the European Collection of Cell Cultures. The cells were incubated in a humidified incubator (37 °C, 5% CO2) and cultured under standard conditions in Dulbecco’s modified Eagle medium (DMEM), 10% heat-inactivated fetal bovine serum, 100 U mL^–1 penicillin, 100 U mL^–1 streptomycin, and 4 mM L-glutamine. […] A cell culture medium was used to make further dilutions, while keeping the equivalent of DMF below 0.5% of the total volume.[94] […]
(§2) 7. Cell Viability Inhibition Assay
MDA-MB-231, LNCaP, Caco-2 and HEK-293 cells (5x10^3 per well) seeded in 96-well plates to assess cell viability by the 3-[4,5-dimethylthiazol-2-yl]-2,5-diphenyltetrazolium bromide (MTT) assay for 24 h at 37°C. Then cells were treated with compound 3 at different concentrations (3-100 µM) at 100μl/well. […]
and etoposid was used as positive controls under identical conditions. After 24, 48 and 72 h incubation, 5 mg/ml MTT solution (20 μl/well) was added and cultured for another 4 h. Then, the supernatant was discarded and dimethyl sulfoxide was added (100 μl/well). The absorbance (A) was measured spectrophotometrically at 540 nm by a Microplate Reader (SpectraMax i3x).
(§3) A graph was plotted between the concentrations of the extract versus the percent viability. The […]
(§4) calculated from graph. All assays were performed in three replicates per concentration level. 11 […]

[2] = test system: MDA-MB-231
Experimental: as §1, §2
(§5) MDA-MB-231, LNCaP, Caco-2 and HEK-293 cells (5x10^3 per well) seeded in 96-well plates to assess cell viability by the 3-[4,5-dimethylthiazol-2-yl]-2,5-diphenyltetrazolium bromide (MTT) assay for 24 h at 37°C. Then cells were treated with compound 3 at different concentrations (3-100 µM) at 100μl/well. In parallel, the traditional anticancer agent cisplatin and etoposid was used as positive controls under identical conditions. After 24, 48 and 72 h incubation, 5 mg/ml MTT solution (20 μl/well) was added and cultured for another 4 h. Then, the supernatant was discarded and dimethyl sulfoxide was added (100 μl/well). The absorbance (A) was measured spectrophotometrically at 540 nm by a Microplate Reader (SpectraMax i3x).
as §3, §4

[3] = test system: LNCaP; details: for IC50: LNCaP
Experimental: as §1, §2, §5, §3, §4

[4] = test system: HEK-293
Experimental: as §1, §2, §5, §3, §4

[5] = 48 h, SI = IC50 on normal cells/IC50 on cancer cells

In the case of COc1cc([C@@H]2c3cc4c(cc3[C@@H](O[C@@H]3O[C@@H]5CO[C@@H](C)O[C@H]5[C@H](O)[C@H]3O)[C@H]3COC(=O)[C@H]23)OCO4)cc(OC)c1O [etoposide], the SI HEK-293/Caco-2 [1, 5] is reported as 1.1, the IC50 ([1]; Caco-2, 24 h) is reported as 76.27 ± 0.34 µM and the IC50 ([1]; Caco-2, 48 h) is reported as 53.81 ± 0.17 µM. It also gave an IC50 ([1]; Caco-2, 72 h) of 17.5 ± 0.26 µM, an SI HEK-293/MDA-MB-231 [2, 5] of 0.94 and an IC50 ([2]; Homo sapiens, MDA-MB-231, 24 h) of 85.4 ± 0.74 µM. For the same compound, the IC50 ([2]; Homo sapiens, MDA-MB-231, 48 h) was 63.17 ± 0.05 µM, the IC50 ([2]; Homo sapiens, MDA-MB-231, 72 h) was 24.3 ± 0.44 µM and the SI HEK-293/LNCap [3, 5] was 0.95. It also gave an IC50 ([3]; Homo sapiens, 24 h) of 81.47 ± 0.62 µM, an IC50 ([3]; Homo sapiens, 48 h) of 62.02 ± 0.61 µM and an IC50 ([3]; Homo sapiens, 72 h) of 20.79 ± 0.08 µM. For the same compound, the IC50 ([4]; Homo sapiens, HEK293, HEK-293, 24 h) was 110.3 ± 0.16 µM, the IC50 ([4]; Homo sapiens, HEK293, HEK-293, 48 h) was 59.2 ± 0.32 µM and the IC50 ([4]; Homo sapiens, HEK293, HEK-293, 72 h) was 51.62 ± 0.48 µM.
Work on N.N.[Cl][Pt][Cl] [cisplatin] yielded an IC50 ([2]; MDA-MB-231, 24 h) of 8.43 ± 0.01 µM, an IC50 ([2]; MDA-MB-231, 48 h) of 2.19 ± 0.02 µM and an IC50 ([2]; MDA-MB-231, 72 h) of 1.78 ± 0.01 µM. It also gave an IC50 ([3]; 24 h) of 26.1 ± 0.58 µM, an IC50 ([3]; 48 h) of 25.9 ± 0.48 µM and an IC50 ([3]; 72 h) of 10.3 ± 0.28 µM. For the same compound, the IC50 ([4]; HEK-293, 24 h) was 18.62 ± 0.09 µM, the IC50 ([4]; HEK-293, 48 h) was 4.7 ± 0.01 µM and the IC50 ([4]; HEK-293, 72 h) was 2.43 ± 0.01 µM.
